Data from patent US11713338B2, “Cyclic peptides multimers targeting α-4-β-7 integrin” (priority 2016, dated 2023).

What follows are molecules tested against T1, integrin α4β7 on α4β7+ memory T helper cells (Homo sapiens, UniProt P13612+P26010) (assay: MAdCAM-1 competition / receptor occupancy assay in human whole blood, α4β7-positive Th memory cells). Conditions: human whole blood, FIG. 7; read-out: EC50, competition with saturating amount of MAdCAM.
T1 construct: endogenous in cells
T1 sequence (P13612 34-1032): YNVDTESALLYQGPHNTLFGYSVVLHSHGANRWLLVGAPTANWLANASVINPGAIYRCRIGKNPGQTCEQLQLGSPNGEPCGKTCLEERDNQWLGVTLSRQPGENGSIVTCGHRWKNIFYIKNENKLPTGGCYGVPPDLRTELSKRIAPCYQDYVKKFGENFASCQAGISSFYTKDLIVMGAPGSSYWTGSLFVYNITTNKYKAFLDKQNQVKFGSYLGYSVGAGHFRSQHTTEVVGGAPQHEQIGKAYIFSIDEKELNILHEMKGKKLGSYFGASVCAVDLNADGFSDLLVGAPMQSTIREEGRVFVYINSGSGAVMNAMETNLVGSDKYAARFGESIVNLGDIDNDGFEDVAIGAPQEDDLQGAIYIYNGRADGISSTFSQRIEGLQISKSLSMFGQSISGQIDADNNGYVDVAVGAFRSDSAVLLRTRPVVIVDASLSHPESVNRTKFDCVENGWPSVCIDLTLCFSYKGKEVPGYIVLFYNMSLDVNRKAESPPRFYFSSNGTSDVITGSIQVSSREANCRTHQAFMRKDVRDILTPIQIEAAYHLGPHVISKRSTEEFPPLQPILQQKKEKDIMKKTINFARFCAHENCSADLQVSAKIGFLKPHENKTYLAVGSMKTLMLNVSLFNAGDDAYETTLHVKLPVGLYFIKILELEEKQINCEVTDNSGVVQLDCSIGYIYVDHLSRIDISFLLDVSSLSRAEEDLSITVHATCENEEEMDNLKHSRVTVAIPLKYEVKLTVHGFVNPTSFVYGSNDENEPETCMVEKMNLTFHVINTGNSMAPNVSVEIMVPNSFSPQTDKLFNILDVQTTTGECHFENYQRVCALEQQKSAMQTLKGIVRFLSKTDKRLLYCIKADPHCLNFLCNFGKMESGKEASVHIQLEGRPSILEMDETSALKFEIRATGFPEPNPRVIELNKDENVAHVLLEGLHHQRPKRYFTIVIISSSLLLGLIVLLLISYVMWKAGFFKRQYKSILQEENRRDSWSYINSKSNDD
T1 sequence (P26010 20-798): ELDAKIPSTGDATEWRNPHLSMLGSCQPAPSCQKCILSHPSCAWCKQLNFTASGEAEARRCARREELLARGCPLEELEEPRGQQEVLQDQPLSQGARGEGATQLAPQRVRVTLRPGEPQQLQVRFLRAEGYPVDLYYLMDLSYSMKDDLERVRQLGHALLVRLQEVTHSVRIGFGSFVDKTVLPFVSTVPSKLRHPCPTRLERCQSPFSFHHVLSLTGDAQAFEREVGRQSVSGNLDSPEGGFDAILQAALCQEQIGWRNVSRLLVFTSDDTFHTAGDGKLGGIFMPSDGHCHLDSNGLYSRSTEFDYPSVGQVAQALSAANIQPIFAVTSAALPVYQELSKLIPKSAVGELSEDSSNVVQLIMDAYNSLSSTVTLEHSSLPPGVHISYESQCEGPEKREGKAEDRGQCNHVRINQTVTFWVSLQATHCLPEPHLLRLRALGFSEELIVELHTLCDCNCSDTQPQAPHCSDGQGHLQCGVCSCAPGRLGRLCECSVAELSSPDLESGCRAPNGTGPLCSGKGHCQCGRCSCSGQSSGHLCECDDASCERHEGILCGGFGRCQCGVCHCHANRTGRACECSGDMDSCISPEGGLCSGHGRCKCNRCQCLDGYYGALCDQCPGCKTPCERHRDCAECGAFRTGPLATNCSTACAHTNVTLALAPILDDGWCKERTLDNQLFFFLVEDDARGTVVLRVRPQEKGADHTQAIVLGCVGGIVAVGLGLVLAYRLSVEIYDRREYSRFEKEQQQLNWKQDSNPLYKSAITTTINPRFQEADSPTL
Format: cell-based
Method in brief: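 Human heparinised whole blood; saturating biotinylated rhMAdCAM-1-Fc or rhVCAM-1-Fc bound 1 h at RT, stained in buffer with 4 mM MnCl2, detected by streptavidin-APC flow cytometry on gated CD45+CD3+CD4+CD45RO+CD49d+ β7+ or β7-lo cells. Occupancy = 100−((% ligand-positive cells with compound/% ligand-positive cells DMSO)*100).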

Row | SMILES | EC50
1 | CC(C)C[C@@H]1NC(=O)c2ccc(-c3ccc(N4CCN(C(=O)c5ccccc5-c5ccccc5C(=O)N5CCN(c6ccc(-c7ccc8cc7CNC(=O)[C@@H]7CCCN7[C@H](C(=O)NC(C)(C)C)[C@H](C)NC(=O)[C@H]([C@@H](C)O)NC(=O)[C@H](CC(=O)O)NC(=O)[C@H](CC(C)C)NC8=O)cc6)CC5)CC4)cc3)c(c2)CNC(=O)[C@@H]2CCCN2[C@H](C(=O)NC(C)(C)C)[C@H](C)NC(=O)[C@H]([C@@H](C)O)NC(=O)[C@H](CC(=O)O)NC1=O [Compound 517] | 38 nM

Same assay, conditions: human whole blood, inhibition of MAdCAM-1 binding to α4β7-positive Th memory cells, FACS; read-out: MADCAM FACS α4β7 Th mem

Row | SMILES | IC50
2 | CC(C)C[C@@H]1NC(=O)c2ccc(-c3ccc(N4CCN(CC(=O)N5CCN(c6ccc(-c7ccc8cc7CNC(=O)[C@@H]7CCCN7[C@H](C(=O)NC(C)(C)C)[C@H](C)NC(=O)[C@H]([C@@H](C)O)NC(=O)[C@H](CC(=O)O)NC(=O)[C@H](CC(C)C)NC8=O)cc6)CC5)CC4)cc3)c(c2)CNC(=O)[C@@H]2CCCN2[C@H](C(=O)NC(C)(C)C)[C@H](C)NC(=O)[C@H]([C@@H](C)O)NC(=O)[C@H](CC(=O)O)NC1=O [Compound 481] | 67 nM
3 | CC(C)C[C@@H]1NC(=O)c2ccc(-c3ccc(N4CCN(CCC(=O)N5CCN(c6ccc(-c7ccc8cc7CNC(=O)[C@@H]7CCCN7[C@H](C(=O)NC(C)(C)C)[C@H](C)NC(=O)[C@H]([C@@H](C)O)NC(=O)[C@H](CC(=O)O)NC(=O)[C@H](CC(C)C)NC8=O)cc6)CC5)CC4)cc3)c(c2)CNC(=O)[C@@H]2CCCN2[C@H](C(=O)NC(C)(C)C)[C@H](C)NC(=O)[C@H]([C@@H](C)O)NC(=O)[C@H](CC(=O)O)NC1=O [Compound 482] | 30 nM
4 | CC(C)C[C@@H]1NC(=O)c2ccc(-c3ccc(N4CCN(C(=O)CCC(=O)N5CCN(c6ccc(-c7ccc8cc7CNC(=O)[C@@H]7CCCN7[C@H](C(=O)NC(C)(C)C)[C@H](C)NC(=O)[C@H]([C@@H](C)O)NC(=O)[C@H](CC(=O)O)NC(=O)[C@H](CC(C)C)NC8=O)cc6)CC5)CC4)cc3)c(c2)CNC(=O)[C@@H]2CCCN2[C@H](C(=O)NC(C)(C)C)[C@H](C)NC(=O)[C@H]([C@@H](C)O)NC(=O)[C@H](CC(=O)O)NC1=O [Compound 484] | 45 nM
5 | CC(C)C[C@@H]1NC(=O)c2ccc(-c3ccc(N4CCN(C(=O)C[C@@H](N)C(=O)N5CCN(c6ccc(-c7ccc8cc7CNC(=O)[C@@H]7CCCN7[C@H](C(=O)NC(C)(C)C)[C@H](C)NC(=O)[C@H]([C@@H](C)O)NC(=O)[C@H](CC(=O)O)NC(=O)[C@H](CC(C)C)NC8=O)cc6)CC5)CC4)cc3)c(c2)CNC(=O)[C@@H]2CCCN2[C@H](C(=O)NC(C)(C)C)[C@H](C)NC(=O)[C@H]([C@@H](C)O)NC(=O)[C@H](CC(=O)O)NC1=O [Compound 493] | 94 nM
6 | CC(C)C[C@@H]1NC(=O)c2ccc(-c3ccc(N4CCN(C(=O)CC[C@H](N)C(=O)N5CCN(c6ccc(-c7ccc8cc7CNC(=O)[C@@H]7CCCN7[C@H](C(=O)NC(C)(C)C)[C@H](C)NC(=O)[C@H]([C@@H](C)O)NC(=O)[C@H](CC(=O)O)NC(=O)[C@H](CC(C)C)NC8=O)cc6)CC5)CC4)cc3)c(c2)CNC(=O)[C@@H]2CCCN2[C@H](C(=O)NC(C)(C)C)[C@H](C)NC(=O)[C@H]([C@@H](C)O)NC(=O)[C@H](CC(=O)O)NC1=O [Compound 494] | 128 nM
7 | CC(C)C[C@@H]1NC(=O)c2ccc(-c3ccc(N4CCN(Cc5cccc(CN6CCN(c7ccc(-c8ccc9cc8CNC(=O)[C@@H]8CCCN8[C@H](C(=O)NC(C)(C)C)[C@H](C)NC(=O)[C@H]([C@@H](C)O)NC(=O)[C@H](CC(=O)O)NC(=O)[C@H](CC(C)C)NC9=O)cc7)CC6)c5)CC4)cc3)c(c2)CNC(=O)[C@@H]2CCCN2[C@H](C(=O)NC(C)(C)C)[C@H](C)NC(=O)[C@H]([C@@H](C)O)NC(=O)[C@H](CC(=O)O)NC1=O [Compound 499] | 41 nM
8 | CC(C)C[C@@H]1NC(=O)c2ccc(-c3ccc(N4CCN(Cc5ccc(CN6CCN(c7ccc(-c8ccc9cc8CNC(=O)[C@@H]8CCCN8[C@H](C(=O)NC(C)(C)C)[C@H](C)NC(=O)[C@H]([C@@H](C)O)NC(=O)[C@H](CC(=O)O)NC(=O)[C@H](CC(C)C)NC9=O)cc7)CC6)cc5)CC4)cc3)c(c2)CNC(=O)[C@@H]2CCCN2[C@H](C(=O)NC(C)(C)C)[C@H](C)NC(=O)[C@H]([C@@H](C)O)NC(=O)[C@H](CC(=O)O)NC1=O [Compound 500] | 55 nM
9 | CC(C)C[C@@H]1NC(=O)c2ccc(-c3ccc(N4CCN(C(=O)CCOCCOCCOCCOCCOCCOCCOCCOCCOCCOCCC(=O)N5CCN(c6ccc(-c7ccc8cc7CNC(=O)[C@@H]7CCCN7[C@H](C(=O)NC(C)(C)C)[C@H](C)NC(=O)[C@H]([C@@H](C)O)NC(=O)[C@H](CC(=O)O)NC(=O)[C@H](CC(C)C)NC8=O)cc6)CC5)CC4)cc3)c(c2)CNC(=O)[C@@H]2CCCN2[C@H](C(=O)NC(C)(C)C)[C@H](C)NC(=O)[C@H]([C@@H](C)O)NC(=O)[C@H](CC(=O)O)NC1=O [Compound 511] | 182 nM
10 | CC(C)C[C@@H]1NC(=O)c2ccc(-c3ccc(N4CCN(C(=O)c5ccccc5-c5ccccc5C(=O)N5CCN(c6ccc(-c7ccc8cc7CNC(=O)[C@@H]7CCCN7[C@H](C(=O)NC(C)(C)C)[C@H](C)NC(=O)[C@H]([C@@H](C)O)NC(=O)[C@H](CC(=O)O)NC(=O)[C@H](CC(C)C)NC8=O)cc6)CC5)CC4)cc3)c(c2)CNC(=O)[C@@H]2CCCN2[C@H](C(=O)NC(C)(C)C)[C@H](C)NC(=O)[C@H]([C@@H](C)O)NC(=O)[C@H](CC(=O)O)NC1=O [Compound 517] | 43 nM
11 | CC(C)C[C@@H]1NC(=O)c2ccc(-c3ccc(N4CCN(C(=O)c5cc(C(=O)N6CCN(c7ccc(-c8ccc9cc8CNC(=O)[C@@H]8CCCN8[C@H](C(=O)NC(C)(C)C)[C@H](C)NC(=O)[C@H]([C@@H](C)O)NC(=O)[C@H](CC(=O)O)NC(=O)[C@H](CC(C)C)NC9=O)cc7)CC6)cc(C(=O)N6CCN(c7ccc(-c8ccc9cc8CNC(=O)[C@@H]8CCCN8[C@H](C(=O)NC(C)(C)C)[C@H](C)NC(=O)[C@H]([C@@H](C)O)NC(=O)[C@H](CC(=O)O)NC(=O)[C@H](CC(C)C)NC9=O)cc7)CC6)c5)CC4)cc3)c(c2)CNC(=O)[C@@H]2CCCN2[C@H](C(=O)NC(C)(C)C)[C@H](C)NC(=O)[C@H]([C@@H](C)O)NC(=O)[C@H](CC(=O)O)NC1=O [Compound 520] | 1.2 nM
12 | CC(C)C[C@@H]1NC(=O)C[C@H](CCCCN)N(C)C(=O)[C@H](CCCCNC(=O)CCCCCCCCC(=O)NCCCC[C@@H]2NC(=O)[C@@H]3CCCN3[C@H](C(=O)NC(C)(C)C)[C@H](C)NC(=O)[C@H]([C@@H](C)O)NC(=O)[C@H](CC(=O)O)NC(=O)[C@H](CC(C)C)NC(=O)C[C@H](CCCCN)N(C)C2=O)NC(=O)[C@@H]2CCCN2[C@H](C(=O)NC(C)(C)C)[C@H](C)NC(=O)[C@H]([C@@H](C)O)NC(=O)[C@H](CC(=O)O)NC1=O [Compound 530] | 33 nM
13 | CC(C)C[C@@H]1NC(=O)C[C@H](CCCCN)N(C)C(=O)[C@H](CCCCNC(=O)CCCCCC(=O)NCCCC[C@@H]2NC(=O)[C@@H]3CCCN3[C@H](C(=O)NC(C)(C)C)[C@H](C)NC(=O)[C@H]([C@@H](C)O)NC(=O)[C@H](CC(=O)O)NC(=O)[C@H](CC(C)C)NC(=O)C[C@H](CCCCN)N(C)C2=O)NC(=O)[C@@H]2CCCN2[C@H](C(=O)NC(C)(C)C)[C@H](C)NC(=O)[C@H]([C@@H](C)O)NC(=O)[C@H](CC(=O)O)NC1=O [Compound 532] | 57 nM
14 | CC(C)C[C@@H]1NC(=O)C[C@H](CCCCN)N(C)C(=O)[C@H](CCCCNC(=O)CCCCCCCC(=O)NCCCC[C@@H]2NC(=O)[C@@H]3CCCN3[C@H](C(=O)NC(C)(C)C)[C@H](C)NC(=O)[C@H]([C@@H](C)O)NC(=O)[C@H](CC(=O)O)NC(=O)[C@H](CC(C)C)NC(=O)C[C@H](CCCCN)N(C)C2=O)NC(=O)[C@@H]2CCCN2[C@H](C(=O)NC(C)(C)C)[C@H](C)NC(=O)[C@H]([C@@H](C)O)NC(=O)[C@H](CC(=O)O)NC1=O [Compound 533] | 46 nM

Same assay, conditions: whole blood from a single donor, FIG. 10; read-out: IC50, inhibition of MAdCAM-1 binding to primary cells

Row | SMILES | IC50
15 | CC(C)C[C@@H]1NC(=O)C[C@H](CCCCN)N(C)C(=O)[C@H](CCCCNC(=O)CCCCCCCCC(=O)NCCCC[C@@H]2NC(=O)[C@@H]3CCCN3[C@H](C(=O)NC(C)(C)C)[C@H](C)NC(=O)[C@H]([C@@H](C)O)NC(=O)[C@H](CC(=O)O)NC(=O)[C@H](CC(C)C)NC(=O)C[C@H](CCCCN)N(C)C2=O)NC(=O)[C@@H]2CCCN2[C@H](C(=O)NC(C)(C)C)[C@H](C)NC(=O)[C@H]([C@@H](C)O)NC(=O)[C@H](CC(=O)O)NC1=O [Compound 530] | 87 to 141 nM
